Laboratory results taken from US10835624B2, “Compounds for imaging Tau protein aggregates” (AC IMMUNE S.A., priority 2016, dated 2020).
pIC50: −log10 of the molar value.

Key:
[1] = target: Tau (Homo sapiens, UniProt P10636); assay: Tau competition binding in human AD brain homogenate with 18F-labeled Tau binder; set-up: High affinity to Tau (IC50 in AD brain homogenate): key: −: poor; ∘: moderate; +: good; ++: very good; +++: excellent; conditions: determined with non-radioactive F-1, F-2, F-3a; for pIC50: human AD brain homogenate, read-out: IC50 for tau binding in AD brain homogenate
Procedure: (§1) 20 μg of human Alzheimer disease brain homogenate was incubated with a dilution series of each test compound (1000 to 0.06 nM) in the presence of 800 Bq of ^18F-labeled Tau binder. The samples were shaken at 110 rpm for 45 min at 37° C. Samples were then filtered through GF/B 96 well filter plates and washed twice with 300 μL assay buffer (PBS containing 0.1% BSA and 2% DMSO). Thereafter, filter plates were sealed and a Fuji Film Imaging Plate (BAS-SR2025) was placed on top. The imaging plate was analyzed after overnight exposition using a Fuji Film BAS-5000. Non-specific signal was determined with samples containing ^18F-labeled Tau-reference binder in the presence of assay buffer without brain substrate and competitor. […] The unblocked ^18F-labeled Tau-binder signal was defined as total binding. IC50 values were calculated by Prism V6 (GraphPad) setting total binding to 100%.

[2] = target: T1, MAO A (Mus musculus, UniProt Q64133); assay: MAO A 18F-FEH competition assay in mouse brain homogenate; type: binding; set-up: Low affinity to MAO A (IC50 in mouse brain homogenate): key to the marks not given beside the values; conditions: for pIC50: 18F-FEH competition, read-out: IC50 MAO A in mouse brain homogenate
T1 construct: from tissue; host or cells: whole mouse brain homogenate
T1 sequence (Q64133 1-526): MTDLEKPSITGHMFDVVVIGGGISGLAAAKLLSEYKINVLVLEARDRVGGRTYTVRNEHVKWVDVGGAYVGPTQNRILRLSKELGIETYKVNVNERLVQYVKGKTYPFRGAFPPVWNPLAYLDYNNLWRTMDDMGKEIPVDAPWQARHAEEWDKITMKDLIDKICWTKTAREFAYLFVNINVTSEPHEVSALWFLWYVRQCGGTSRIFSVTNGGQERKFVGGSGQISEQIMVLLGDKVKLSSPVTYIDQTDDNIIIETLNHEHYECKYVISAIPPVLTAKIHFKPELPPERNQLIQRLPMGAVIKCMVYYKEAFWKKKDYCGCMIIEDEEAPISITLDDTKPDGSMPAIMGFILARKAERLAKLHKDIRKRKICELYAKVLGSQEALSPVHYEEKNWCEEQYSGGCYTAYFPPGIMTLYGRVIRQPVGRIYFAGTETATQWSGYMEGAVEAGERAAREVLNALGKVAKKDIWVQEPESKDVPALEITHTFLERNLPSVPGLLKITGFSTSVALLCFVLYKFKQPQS

[3] = target: T2, MAO A (Homo sapiens, UniProt P21397); assay: MAO A FEH competition assay in human HC brain homogenate; type: binding; set-up: Low affinity to MAO A (IC50 in HC homogenate): key: −: poor; ∘: moderate; +: good; ++: very good; +++: excellent; conditions: for pIC50: human healthy control brain homogenate, FEH competition
T2 construct: 20 μg of human brain homogenate (without AD pathology); from tissue; host or cells: human brain homogenate without AD pathology (healthy control)
T2 sequence (P21397 1-527): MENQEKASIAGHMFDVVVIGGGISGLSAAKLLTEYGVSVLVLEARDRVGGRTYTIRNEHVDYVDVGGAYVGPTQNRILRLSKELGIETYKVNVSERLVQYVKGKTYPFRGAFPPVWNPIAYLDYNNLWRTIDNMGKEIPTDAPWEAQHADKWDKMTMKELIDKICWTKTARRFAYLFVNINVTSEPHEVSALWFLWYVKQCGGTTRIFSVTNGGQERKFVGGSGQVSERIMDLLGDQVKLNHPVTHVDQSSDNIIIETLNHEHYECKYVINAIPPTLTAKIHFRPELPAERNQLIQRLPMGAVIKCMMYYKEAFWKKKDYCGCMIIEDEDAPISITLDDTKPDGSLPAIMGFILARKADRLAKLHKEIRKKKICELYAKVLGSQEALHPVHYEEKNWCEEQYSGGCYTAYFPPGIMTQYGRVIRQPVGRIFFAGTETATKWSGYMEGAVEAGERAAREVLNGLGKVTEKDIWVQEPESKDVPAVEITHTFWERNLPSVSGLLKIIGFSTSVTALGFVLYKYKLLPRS
Procedure: as §1, with “human” for “human Alzheimer disease”, “homogenate (without AD pathology)” for “homogenate”, “MAO-A binder ([^18F]fluoroethyl harmine, FEH).” for “Tau binder.”, “FEH” for “Tau-reference binder”, “FEH” for “Tau-binder”

[4] = PK studies in healthy mice (PET); type: in vivo, NMRI mice; set-up: Good brain uptake / Fast washout from healthy brain: key: −: poor; ∘: moderate; +: good; ++: very good; +++: excellent; conditions: for Low retention in healthy brain / Good brain uptake / Low or minor de-fluorination / Fast washout from healthy brain: grade; for Low retention in healthy brain: healthy mice 60 min after iv injection; for Good brain uptake: healthy mice after iv injection; for Low or minor de-fluorination: bone uptake in healthy mice at 60 min; for Fast washout from healthy brain: healthy mice; for De-fluorination in mice (in words): mouse, in vivo; as to Good brain uptake: key: −: poor; ∘: moderate; +: good; ++: very good; +++: excellent; as to Low or minor de-fluorination: key: −: poor; ∘: moderate; +: good; ++: very good; +++: excellent; as to Low retention in healthy brain: key: −: poor; ∘: moderate; +: good; ++: very good; +++: excellent
Procedure: NMRI mice (weight range 25-35 g) were injected intravenously with the ^18F-labeled compounds. Up to 150 μL of 1×PBS solution with 10%-15% EtOH or dilution medium ([…]) containing the ^18F-labeled compound (2-10 MBq) were injected. Anesthesia with isoflurane was induced before injection of the tracer and maintained during the image acquisition period. PET scans were performed using a SIEMENS INVEON small animal PET/CT scanner (Siemens, Knoxville, Tenn.). PET acquisition was started immediately before the radioactive dose was injected into the animal through the tail vein. Images were generated as dynamic scans for 60 minutes.
The peak uptake in the brain was set to 100% and washout curves were generated to evaluate the clearance of the activity from the normal brain (FIG. 2).

[5] = grade, non-radioactive derivatives

Sequence of Tau (P10636 623-708 limits assumed): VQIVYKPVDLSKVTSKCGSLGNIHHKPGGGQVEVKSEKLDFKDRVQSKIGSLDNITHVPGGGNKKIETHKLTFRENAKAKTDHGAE

pIC50 [1] | pIC50 ([2]; non-radioactive derivatives) | pIC50 [3] | Low retention in healthy brain [4] | Good brain uptake [4] | Low or minor de-fluorination [4] | Fast washout from healthy brain [4] | De-fluorination in mice (in words) [4] | High affinity to Tau (IC50 in AD brain homogenate) ([1]; grade) | Low affinity to MAO A (IC50 in mouse brain homogenate) [2, 5] | Fold higher MAO A IC50 than compound 18F-1 ([2]; whole mouse brain homogenate) [fold] | Fold higher MAO A IC50 than compound 18F-2 ([2]; whole mouse brain homogenate) [fold] | Fold higher MAO A IC50 than compound 18F-1 ([3]; HC brain homogenate) [fold] | Fold higher MAO A IC50 than compound 18F-2 ([3]; HC brain homogenate) [fold] | Low affinity to MAO A (IC50 in HC homogenate) [3, 5] | Fold faster washout from healthy brain than 18F-1 ([4]; mice) [fold] | Fold lower long-term retention in healthy brain than 18F-1 ([4]; mice) [fold] | Fold lower long-term retention in healthy brain than 18F-2 ([4]; mice) [fold] | SMILES
> 8.70 | 7.66 | 8.30 | − | ++ |  |  |  |  |  |  |  |  |  |  |  |  |  | [18F]c1ccc(-c2ccc3c(c2)[nH]c2ccncc23)cn1 [^18F-1]
> 8.70 | 6.32 | 7.00 |  | ++ | − | ++ | De-fluorination in mice was found |  |  |  |  |  |  |  |  |  |  | [18F]c1ccc(-c2ccc3c(n2)[nH]c2ccncc23)cn1 [^18F-2]
> 8.70 | 5.85 | 5.96 | ++ | ++ | +++ | ++ | No de-fluorination | +++ | +++ | 64 | 3 | 220 | 11 | +++ | 1.6 | 2.7 | 2 | [18F]c1cc(-c2ccc3c(n2)[nH]c2ccncc23)ccn1 [^18F-3a]
